System: 4B3
Conditions: stored under N2 at 25° C., 37° C., or 57° C. for 58 days; 10 nM 4B3 spiked in 1% v/v human serum
Method: Small amounts of (iii) were stored under N2 at 25° C., 37° C., or 57° C. for 58 days. […] The remaining samples were lyophilized and used in a single point sandwich ELISA. Streptavidin-coated 96-well plates were saturated with the samples of (iii) recovered from the storage experiments using 1 μM solutions in TBS. The plates were blocked with 5% w/v dry milk in TBS, then incubated with either 1% v/v human serum or 10 nM 4B3 spiked in 1% v/v human serum in 0.5% w/v dry milk in TBS at room temperature for 1 hr. Bound antibody was probed with HPR-conjugated mouse monoclonal antibody to human IgG Fc diluted 1:15,000 in 0.5% w/v dry milk in TBS. The colorimetric assay was developed with TMB substrate, then quenched with 1 M H2SO4 and read at 450 nm.

Question: For “Biotin-PEG5-IWCGSGKLICTTA-Pra-(TZ-Az4-eihny-CONH2)-ICTTA-CONH2 [(iii)]”, which “ELISA performance after storage” value is on record?
Answer: Its value is “no detectable loss of performance”.

From US11365220B2, “Methods of making anti-GP41 antibody-specific capture agents” (California Institute of Technology, priority 2013, dated 2022)
